Assay results taken from patent US20100192451A1, “MOSQUITO ATTRACTANT COMPOSITIONS AND METHODS” (priority 2008, published 2010).

Legend:
[1] = system: gravid Ae. aegypti; experiment: Egg-laying (contact-mediated) binary choice bioassay; format: in vivo, Aedes aegypti; conditions: for induction of egg laying by synthetic compounds: 1, 10 and 100 ng in 30 mL water
Experimental: Modifications of the olfactory- and contact-mediated bioassays previously described (Trexler J D, Apperson C S, Schal C (1998) J Med Entomol 35:967-976) were used to measure the response of gravid mosquitoes to plant infusions (or bacterial compounds). Briefly, two 125-mL polypropylene cups (test and control) were placed randomly in diagonal corners of a Plexiglas cage (30×30×30 cm) that was fitted with a stockinet cloth sleeve (AlbaHealth, Rockwood, Tenn.). Each cup was filled with 30 mL of either test or control solution. White paper sleeves were placed around each bioassay cup to mask visual cues presented by darkly colored leaf infusions. Adults had ad libitum access to water contained in a polypropylene cup that was fitted with a lid with a cotton wick protruding through a hole in the lid. For egg-laying bioassays, either one or five gravid females were released in each replicate cage. Cages were placed randomly on racks in a room where environmental conditions were the same as in the insectary. After a 24 h exposure period, eggs laid on the surface of the water in the test and control cups were counted. In olfactory bioassays, 10 gravid females were released in each bioassay cage. A circular metal wire-mesh screen covered with insect glue (Tanglefoot; Tanglefoot Co.) was inserted in each cup on top of an insert cut from a 120-mL polypropylene cup. Sticky screens were placed above test and control media, 2.5 cm below the lip of each cup. The mesh size of the metal screen prevented females from entering without landing on the screen. Therefore, positive or negative responses to the test infusions were measured by the numbers of females trapped during a 24 h exposure period on the sticky screen in the test and control cups.
For each replicate bioassay cage, the numbers of eggs laid in the test and control cups were converted to the proportion of the total number of eggs laid. The proportions were subjected to an arcsin√x transformation to achieve approximate normality. A one-tailed paired t test was used to determine whether differences in the mean transformed proportion of eggs deposited in test and control cups were statistically significant.
Synthetic compounds were bioassayed by placing hexane solutions on the surface of sterile distilled water; water in control cups was treated with hexane alone. The hexane was evaporated in a fume hood before bioassays commenced. Each bioassay was with a single female and lasted 72 h.

[2] = system: gravid Ae. aegypti; experiment: as above; format: in vivo, Aedes aegypti; conditions: for Eggs per assay: five females per assay, 24-h
[3] = dose 1 ng in 30 mL water, single female, 72 h
[4] = dose 10 ng in 30 mL water, single female, 72 h
[5] = dose 10 ng, single female, 72 h
[6] = dose 100 ng in 30 mL water, single female, 72 h
[7] = dose 100 ng, single female, 72 h
[8] = dose 0.01 mg, single female, 72 h
[9] = dose 0.1 mg, single female, 72 h
[10] = dose 1.0 mg, single female, 72 h
[11] = 1 ng, five females, 24 h assays
[12] = dose 0.01 ng, five females per assay, 24-h
[13] = dose 0.1 ng, five females per assay, 24-h
[14] = dose 1.0 ng, five females per assay, 24-h

Compound | Treatment, % (eggs in treatment cup) [1, 3] | Eggs per assay ([1]; dose 1 ng, single female, 72 h) | Treatment, % (eggs in treatment cup) [1, 4] | Eggs per assay [1, 5] | Treatment, % (eggs in treatment cup) [1, 6] | Eggs per assay [1, 7] | induction of egg laying by synthetic compounds ([1]; single female, 72 h) | further results
CCCCCCCCCC(=O)O [Decanoic acid] | 43.7% | 60.0 ± 5.6 | 52.2% | 61.3 ± 5.0 | 45.8% | 67.0 ± 7.0 | – | –
CCCCCCCCCCCC(=O)O [Dodecanoic acid] | 47.0% | 67.3 ± 4.0 | 43.4% | 66.3 ± 3.1 | 47.6% | 63.8 ± 3.4 | – | Eggs per assay [1, 8]: 66.5 ± 4.2; Treatment, % (eggs in treatment cup) [1, 8]: 52.2%; Eggs per assay [1, 9]: 64.4 ± 2.9; Treatment, % (eggs in treatment cup) [1, 9]: 45.8%; Eggs per assay [1, 10]: 60.2 ± 2.8; Treatment, % (eggs in treatment cup) [1, 10]: 42.2%
CCCCCCCCCCCCCCCC(=O)OC [Hexadecanoic acid, methyl ester] | 34.7% | 51.0 ± 3.5 | 59.1% | 51.3 ± 3.0 | 60.4% | 58.6 ± 3.8 | – | –
CCCCCCCCCCCCCCCC(=O)O [Hexadecanoic acid] | 53.4% | 63.7 ± 4.2 | 43.2% | 63.5 ± 4.9 | 38.2% | 71.8 ± 4.8 | – | –
CCCCCCCCC(=O)O [Nonanoic acid] | 38.6% | 70.9 ± 4.0 | 58.3% | 74.3 ± 6.1 | 69.1% | 80.0 ± 3.3 | highly effective at inducing egg laying | –
CCCCCCCCCCCCCCCCCC(=O)O [Octadecanoic acid] | 55.1% | 71.3 ± 3.3 | 46.4% | 69.0 ± 3.6 | 58.4% | 64.8 ± 4.8 | – | –
CCCCCCCCCCCCCC(=O)OC [Tetradecanoic acid, methyl ester] | 55.0% | 68.3 ± 5.4 | 70.2% | 64.0 ± 7.1 | 51.0% | 70.6 ± 6.0 | highly effective at inducing egg laying | –
CCCCCCCCCCCCCC(=O)O [Tetradecanoic acid] | 45.4% | 79.6 ± 2.7 | 81.0% | 87.7 ± 5.1 | 62.1% | 80.2 ± 5.2 | highly effective at inducing egg laying | eggs per female in 24 h [1, 11]: 43.4±3.9; diversion of oviposition to treated water ([1]; 10 ng, single female, 72 h): diverted the greatest amount of oviposition to the treated water; Eggs per assay [1, 12]: 318.5 ± 14.4; Treatment, % (eggs in treatment cup) [1, 12]: 52.3%; Eggs per assay [1, 13]: 232.1 ± 22.3; Treatment, % (eggs in treatment cup) [1, 13]: 57.8%; Eggs per assay [1, 14]: 216.8 ± 19.4; Treatment, % (eggs in treatment cup) [1, 14]: 76.9%; Treatment, % (eggs in treatment cup) ([1]; dose 10 ng, five females per assay, 24-h): 57.9%; Treatment, % (eggs in treatment cup) ([1]; dose 100 ng, five females per assay, 24-h): 38.7%; oviposition stimulation [2, 11]: highly stimulatory; Eggs per assay ([2]; dose 10 ng): 196.4 ± 23.2; Eggs per assay ([2]; dose 100 ng): 260.4 ± 30.9
